Calls of active or inactive are those of the source.
What was measured:
[1] = molecular target: Beta-galactosidase (Escherichia coli, UniProt Q8VNN2); test: PubChem AID 485352; format: functional
[2] = molecular target: T1, Type-1 angiotensin II receptor (Homo sapiens, UniProt P30556); test: antagonism of angiotensin II type 1 receptor – cell-based, uHTS hits, selectivity assay for APJ receptor antagonist project, dose response (AID 463214); format: functional;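 also: antagonist potency against angiotensin II stimulated AT1 response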
T1 sequence (P30556 whole entry): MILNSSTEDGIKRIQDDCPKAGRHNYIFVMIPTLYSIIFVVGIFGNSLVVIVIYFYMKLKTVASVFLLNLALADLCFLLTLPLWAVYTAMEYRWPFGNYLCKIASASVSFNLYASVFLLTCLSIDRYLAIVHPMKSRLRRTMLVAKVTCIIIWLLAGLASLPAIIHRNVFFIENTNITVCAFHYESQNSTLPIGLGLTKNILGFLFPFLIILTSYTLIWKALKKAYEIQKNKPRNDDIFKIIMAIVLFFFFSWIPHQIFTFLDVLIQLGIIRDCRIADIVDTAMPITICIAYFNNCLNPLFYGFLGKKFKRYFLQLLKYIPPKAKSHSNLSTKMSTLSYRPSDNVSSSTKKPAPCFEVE

[3] = molecular target: T2, Hepatocyte nuclear factor 4-alpha (Homo sapiens, UniProt P41235); format: functional, cell-based;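 also: biochemical luminescence-based dose-response counterscreen measuring inhibition of HNF4 dimerization, run alongside a screen for blockers of ABHD5–perilipin-5 interaction; split luciferase complementation of HNF4 fusion proteins in cell lysate measuring dimerization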
T2 sequence (P41235 whole entry): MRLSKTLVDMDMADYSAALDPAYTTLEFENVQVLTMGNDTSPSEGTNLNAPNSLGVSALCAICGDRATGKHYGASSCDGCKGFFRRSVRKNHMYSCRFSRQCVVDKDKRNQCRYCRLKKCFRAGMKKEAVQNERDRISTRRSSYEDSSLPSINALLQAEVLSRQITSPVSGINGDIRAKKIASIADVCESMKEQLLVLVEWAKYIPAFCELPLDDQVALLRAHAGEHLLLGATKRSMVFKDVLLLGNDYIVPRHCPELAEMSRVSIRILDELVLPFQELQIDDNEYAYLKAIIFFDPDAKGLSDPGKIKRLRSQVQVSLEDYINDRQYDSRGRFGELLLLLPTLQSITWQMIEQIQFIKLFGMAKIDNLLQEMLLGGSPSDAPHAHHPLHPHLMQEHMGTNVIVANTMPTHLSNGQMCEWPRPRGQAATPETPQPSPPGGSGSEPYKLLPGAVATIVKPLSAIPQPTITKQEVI

[4] = test system: HeLa; test: ATP-based viability loss in HeLa cells – cell-based, CellTiter-Glo luminescence, cherry-pick samples, cytotoxicity control for MITF activator project, dose response (AID 540259); format: functional; conditions: Homo sapiens
[5] = molecular target: T3, Oxysterols receptor LXR-beta (Homo sapiens, UniProt P55055); format: functional, cell-based;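 also: agonist activity at LXR measured by a cell-based luminescence readout across a dose range, run as a counterscreen for daf-12 agonists; HEK293 cells with Gal4-LXR fusion and GAL4-driven luciferase reporter; potency for activation of Gal4-LXR reporter so compounds are agonists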
T3 sequence (P55055 whole entry): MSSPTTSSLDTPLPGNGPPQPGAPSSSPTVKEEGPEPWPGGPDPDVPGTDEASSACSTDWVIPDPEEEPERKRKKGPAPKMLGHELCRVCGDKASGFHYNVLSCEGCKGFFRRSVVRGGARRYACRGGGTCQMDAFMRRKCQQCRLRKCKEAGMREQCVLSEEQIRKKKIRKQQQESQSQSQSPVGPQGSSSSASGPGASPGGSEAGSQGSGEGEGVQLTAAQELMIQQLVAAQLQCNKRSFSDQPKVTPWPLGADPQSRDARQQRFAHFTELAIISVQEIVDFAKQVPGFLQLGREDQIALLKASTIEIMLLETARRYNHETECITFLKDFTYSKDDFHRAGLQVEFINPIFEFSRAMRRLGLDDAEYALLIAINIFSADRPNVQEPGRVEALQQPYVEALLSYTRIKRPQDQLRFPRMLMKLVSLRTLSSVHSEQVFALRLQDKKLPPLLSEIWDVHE

[6] = molecular target: T4, Heat shock factor protein 1 (Mus musculus, UniProt P38532); test: decrease of HSF1-responsive luciferase luminescence – cell-based, NIH3T3, dose retest, confirmation (AID 2382); format: functional;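 also: NIH3T3 fibroblasts with HSF1-driven luciferase reporter stressed by proteasome inhibitor MG132; luminescence from HSF1-driven luciferase expression after 8 hours of MG132 stress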
T4 sequence (P38532 whole entry): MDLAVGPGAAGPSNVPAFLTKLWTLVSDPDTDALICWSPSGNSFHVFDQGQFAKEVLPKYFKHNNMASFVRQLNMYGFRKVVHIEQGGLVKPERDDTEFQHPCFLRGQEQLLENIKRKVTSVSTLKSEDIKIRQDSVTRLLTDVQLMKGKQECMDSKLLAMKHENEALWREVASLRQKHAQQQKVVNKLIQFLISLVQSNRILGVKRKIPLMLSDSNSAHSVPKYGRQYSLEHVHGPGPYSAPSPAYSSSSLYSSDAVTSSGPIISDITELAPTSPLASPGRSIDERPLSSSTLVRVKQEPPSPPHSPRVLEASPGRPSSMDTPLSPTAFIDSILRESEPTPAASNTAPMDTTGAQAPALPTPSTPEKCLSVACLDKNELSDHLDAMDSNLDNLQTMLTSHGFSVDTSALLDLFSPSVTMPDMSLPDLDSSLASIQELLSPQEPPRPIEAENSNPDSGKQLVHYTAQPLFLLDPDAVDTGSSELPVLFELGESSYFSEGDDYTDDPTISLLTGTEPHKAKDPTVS

[7] = test system: HEK293; test: EBV LMP1 TES2 canonical NF-kB signalling blockers – cell-based, HEK293, luciferase, cherry-pick, dose response (AID 588343); format: functional; conditions: Homo sapiens
[8] = molecular target: Luciferin 4-monooxygenase (Photinus pyralis, UniProt P08659); test: inhibition of purified Photinus pyralis luciferase – biochemical, luminescence, dose response (AID 1891)
Sequence of Luciferin 4-monooxygenase (P08659 whole entry): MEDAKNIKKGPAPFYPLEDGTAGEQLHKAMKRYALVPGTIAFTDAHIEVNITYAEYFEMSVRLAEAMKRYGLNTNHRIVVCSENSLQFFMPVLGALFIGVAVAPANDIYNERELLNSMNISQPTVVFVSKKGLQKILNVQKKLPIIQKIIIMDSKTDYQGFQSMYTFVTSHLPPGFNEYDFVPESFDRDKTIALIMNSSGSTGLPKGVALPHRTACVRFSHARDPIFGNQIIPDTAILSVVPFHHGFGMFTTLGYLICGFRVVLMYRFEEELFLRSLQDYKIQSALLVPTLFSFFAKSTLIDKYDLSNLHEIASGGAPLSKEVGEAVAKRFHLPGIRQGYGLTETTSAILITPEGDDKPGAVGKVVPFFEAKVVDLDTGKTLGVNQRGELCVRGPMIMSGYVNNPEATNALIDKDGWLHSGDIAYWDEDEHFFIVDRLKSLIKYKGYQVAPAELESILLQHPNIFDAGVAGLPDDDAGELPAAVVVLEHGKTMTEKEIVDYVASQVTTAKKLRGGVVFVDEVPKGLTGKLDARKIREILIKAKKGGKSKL

[9] = Luminescence Cell-Based Dose Confirmation HTS to Identify Inhibitors of Platelet Dense Granule Release. [Related pubchem assays: 1663 (Primary HTS), 1678 (Summary of Project)]; format: functional
[10] = molecular target: T5, Sentrin-specific protease 6 (Homo sapiens, UniProt Q9GZR1); format: functional;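 also: Luminescence-based dose-response confirmatory assay of SENP6 inhibition, following up an ultra-high-throughput screen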
T5 sequence (Q9GZR1 whole entry): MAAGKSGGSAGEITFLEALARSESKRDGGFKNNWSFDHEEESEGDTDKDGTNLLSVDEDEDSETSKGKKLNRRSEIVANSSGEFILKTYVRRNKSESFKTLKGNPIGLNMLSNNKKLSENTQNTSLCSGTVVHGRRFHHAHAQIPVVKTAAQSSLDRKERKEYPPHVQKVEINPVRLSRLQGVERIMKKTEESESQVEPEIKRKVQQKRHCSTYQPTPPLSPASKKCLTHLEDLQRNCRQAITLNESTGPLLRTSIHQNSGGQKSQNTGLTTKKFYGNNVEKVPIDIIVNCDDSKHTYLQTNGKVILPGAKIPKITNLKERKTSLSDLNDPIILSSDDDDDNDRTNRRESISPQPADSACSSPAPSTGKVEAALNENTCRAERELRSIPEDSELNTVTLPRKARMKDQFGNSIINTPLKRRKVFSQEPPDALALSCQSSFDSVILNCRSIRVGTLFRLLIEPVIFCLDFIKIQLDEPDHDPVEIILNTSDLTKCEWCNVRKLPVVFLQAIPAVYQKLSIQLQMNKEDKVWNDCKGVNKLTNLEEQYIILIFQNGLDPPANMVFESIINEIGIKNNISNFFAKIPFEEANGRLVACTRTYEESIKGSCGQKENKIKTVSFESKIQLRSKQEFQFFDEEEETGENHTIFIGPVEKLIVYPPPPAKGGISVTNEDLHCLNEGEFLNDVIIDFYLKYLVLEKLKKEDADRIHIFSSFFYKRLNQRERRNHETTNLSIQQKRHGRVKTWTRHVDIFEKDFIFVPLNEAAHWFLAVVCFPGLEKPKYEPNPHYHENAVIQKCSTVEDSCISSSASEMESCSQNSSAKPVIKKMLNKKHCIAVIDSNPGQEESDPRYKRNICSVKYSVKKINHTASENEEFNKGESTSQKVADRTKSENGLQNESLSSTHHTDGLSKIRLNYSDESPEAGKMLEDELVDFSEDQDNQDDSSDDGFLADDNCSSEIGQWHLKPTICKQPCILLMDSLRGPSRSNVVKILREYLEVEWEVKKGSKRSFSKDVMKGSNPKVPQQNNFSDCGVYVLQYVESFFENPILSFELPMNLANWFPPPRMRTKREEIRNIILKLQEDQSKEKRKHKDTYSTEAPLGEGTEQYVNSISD

[11] = molecular target: T6, Sentrin-specific protease 8 (Homo sapiens, UniProt Q96LD8); format: functional;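 also: luminescence read-out of SENP8 inhibition, dose-response confirmation following an ultra-high-throughput screen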
T6 sequence (Q96LD8 whole entry): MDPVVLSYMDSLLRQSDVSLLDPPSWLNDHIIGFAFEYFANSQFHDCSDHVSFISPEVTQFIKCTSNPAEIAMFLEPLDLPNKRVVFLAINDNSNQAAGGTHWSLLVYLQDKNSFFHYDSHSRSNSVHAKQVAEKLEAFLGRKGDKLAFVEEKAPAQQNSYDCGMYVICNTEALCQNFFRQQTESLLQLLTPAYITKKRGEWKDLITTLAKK

[12] = molecular target: T7, Caspase-3 (Homo sapiens, UniProt P42574); format: functional;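 also: Dose-response selectivity test against caspase-3 for candidate inhibitors of sentrin-specific proteases (SENPs)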
T7 sequence (P42574 whole entry): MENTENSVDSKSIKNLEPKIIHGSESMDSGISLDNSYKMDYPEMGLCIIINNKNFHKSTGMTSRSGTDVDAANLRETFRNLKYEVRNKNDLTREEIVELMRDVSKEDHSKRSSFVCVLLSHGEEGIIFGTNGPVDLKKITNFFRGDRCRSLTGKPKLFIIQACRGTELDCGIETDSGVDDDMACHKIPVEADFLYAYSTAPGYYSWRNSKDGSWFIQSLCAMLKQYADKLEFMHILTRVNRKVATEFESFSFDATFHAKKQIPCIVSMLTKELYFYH

[13] = molecular target: T8, Sentrin-specific protease 7 (Homo sapiens, UniProt Q9BQF6); format: functional;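 also: Luminescence-based dose-response confirmation of ultra-high-throughput screening hits, measuring inhibition of SENP7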
T8 sequence (Q9BQF6 whole entry): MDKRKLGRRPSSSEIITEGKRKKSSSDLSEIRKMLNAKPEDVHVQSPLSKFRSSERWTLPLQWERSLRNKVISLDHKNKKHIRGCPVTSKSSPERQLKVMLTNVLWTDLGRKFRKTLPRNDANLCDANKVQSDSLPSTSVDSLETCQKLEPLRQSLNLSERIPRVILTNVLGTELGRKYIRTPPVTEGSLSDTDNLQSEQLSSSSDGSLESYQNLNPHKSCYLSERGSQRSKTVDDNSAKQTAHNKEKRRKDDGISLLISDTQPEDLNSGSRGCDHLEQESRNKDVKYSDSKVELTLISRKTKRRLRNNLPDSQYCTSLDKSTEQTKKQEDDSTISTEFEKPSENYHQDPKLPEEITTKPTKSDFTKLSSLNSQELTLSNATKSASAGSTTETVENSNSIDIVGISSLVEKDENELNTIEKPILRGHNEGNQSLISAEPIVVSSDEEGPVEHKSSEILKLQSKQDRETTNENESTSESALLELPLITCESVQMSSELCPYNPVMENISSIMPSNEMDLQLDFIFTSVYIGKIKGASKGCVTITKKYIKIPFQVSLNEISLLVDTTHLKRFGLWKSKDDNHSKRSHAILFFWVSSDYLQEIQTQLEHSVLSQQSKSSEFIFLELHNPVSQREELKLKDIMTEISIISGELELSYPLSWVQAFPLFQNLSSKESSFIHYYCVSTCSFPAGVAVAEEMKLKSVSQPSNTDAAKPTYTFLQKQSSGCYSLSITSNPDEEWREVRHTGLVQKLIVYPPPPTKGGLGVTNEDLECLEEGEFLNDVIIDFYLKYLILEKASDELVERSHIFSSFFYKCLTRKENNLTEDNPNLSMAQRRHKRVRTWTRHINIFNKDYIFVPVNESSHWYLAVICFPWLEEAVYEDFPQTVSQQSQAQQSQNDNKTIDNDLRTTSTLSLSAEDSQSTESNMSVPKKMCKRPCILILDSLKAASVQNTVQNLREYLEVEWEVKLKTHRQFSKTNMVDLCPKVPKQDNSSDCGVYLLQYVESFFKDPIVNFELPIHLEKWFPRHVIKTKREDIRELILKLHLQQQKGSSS

[14] = microbe, parasite or virus in culture; format: functional; conditions: Mycobacterium tuberculosis
[15] = molecular target: Heat shock protein HSP 90-alpha (Homo sapiens, UniProt P07900); format: functional, organism-based

Sequence of Beta-galactosidase (Q8VNN2 whole entry): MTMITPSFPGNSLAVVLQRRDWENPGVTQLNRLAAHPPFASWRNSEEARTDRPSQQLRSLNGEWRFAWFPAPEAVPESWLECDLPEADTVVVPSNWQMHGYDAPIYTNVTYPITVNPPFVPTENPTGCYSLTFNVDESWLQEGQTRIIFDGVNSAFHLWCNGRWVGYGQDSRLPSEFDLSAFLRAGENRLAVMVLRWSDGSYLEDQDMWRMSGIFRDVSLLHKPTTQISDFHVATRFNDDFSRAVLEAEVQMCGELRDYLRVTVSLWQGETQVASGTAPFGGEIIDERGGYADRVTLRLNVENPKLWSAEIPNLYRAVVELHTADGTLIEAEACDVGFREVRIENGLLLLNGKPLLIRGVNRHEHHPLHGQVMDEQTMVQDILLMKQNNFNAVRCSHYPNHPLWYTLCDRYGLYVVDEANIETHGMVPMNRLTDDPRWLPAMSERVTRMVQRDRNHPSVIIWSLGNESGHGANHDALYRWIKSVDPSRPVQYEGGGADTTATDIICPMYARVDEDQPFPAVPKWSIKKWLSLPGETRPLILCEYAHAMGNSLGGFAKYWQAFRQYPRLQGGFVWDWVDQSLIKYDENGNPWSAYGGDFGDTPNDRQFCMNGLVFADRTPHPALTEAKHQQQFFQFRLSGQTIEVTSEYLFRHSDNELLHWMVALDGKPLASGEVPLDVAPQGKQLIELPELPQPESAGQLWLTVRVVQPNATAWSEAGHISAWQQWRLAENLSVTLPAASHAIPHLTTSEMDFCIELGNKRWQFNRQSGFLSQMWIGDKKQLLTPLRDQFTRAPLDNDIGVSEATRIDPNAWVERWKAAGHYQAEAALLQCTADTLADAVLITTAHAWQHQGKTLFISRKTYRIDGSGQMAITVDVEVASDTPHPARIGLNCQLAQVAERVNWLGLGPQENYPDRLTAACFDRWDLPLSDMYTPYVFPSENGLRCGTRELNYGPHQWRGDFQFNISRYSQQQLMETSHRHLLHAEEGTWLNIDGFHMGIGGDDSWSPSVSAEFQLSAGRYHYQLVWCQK

With `COc1ccc(S(=O)(=O)NNc2nc(C)cc(C)n2)cc1Br` the EC50 [1] was > 40 µM (inactive) and the IC50 [2] was > 40 µM (not active).
With `CCC1(C)N=C(c2ccc3c(c2)OCO3)CC(c2ccccc2O)N1` (stereo unspecified) the IC50 [3] was 1.87 µM (active).
With `COc1ccccc1C=CC(=O)C=Cc1ccccc1OC` the IC50 [3] was 6.46 µM (active).
For `Cc1ccn(-c2cccc(-n3ccc(C)n3)n2)n1`, the AC50 [4] was 46.9 µM (active) and the EC50 [5] was > 67.6 µM (inactive).
With `COc1cc2c(cc1OC)-c1cc(Nc3ccc4c(c3)OCCO4)nc(=O)n1CC2` the EC50 [6] was 2.04 µM (active), the AC50 [7] was 27.3 µM (active) and the EC50 [8] was 17.4 µM (active). For the same compound, the EC50 [9] was 4.63 µM (active).
In the case of `CCOc1cccc(-c2nc3cc(C)ccc3o2)c1`, the IC50 [10] is reported as 15.6 µM (active), the IC50 [11] is reported as 39.6 µM (active) and the IC50 [12] is reported as 18.2 µM (active). The IC50 [13] was 7.7 µM (active).
For `CCOC(=O)CN1C(=O)S/C(=C\c2ccc(-c3cccc(C(=O)O)c3C)o2)C1=O`, the IC50 [10] was 18 µM (active), the IC50 [11] was 16.2 µM (active) and the IC50 [12] was 45.4 µM (active). The IC50 [13] was 6.97 µM (active).
For `Cc1nc(-c2ccccc2)sc1C(=O)/C=C/c1ccccc1`, the CC50 [14] was 36.9 µM (active) and the IC50 [3] was 3.43 µM (active).
With `Cc1ccnc(NC(=O)c2ccc(S(=O)(=O)N3CCC(C)CC3)cc2)c1` the AC50 [4] was 128 µM (active).
For `Cc1ccc(S(=O)(=O)NC(=NNC(=O)c2cccc(Cl)c2)c2ccccc2)cc1`, the IC50 [10] was 13.6 µM (active), the IC50 [11] was 19.4 µM (active) and the IC50 [12] was 10.3 µM (active). For the same compound, the IC50 [13] was 5.83 µM (active).
For `Cc1ccc(C(C[N+](=O)[O-])c2c(N)n(C)c(=O)n(C)c2=O)cc1` (stereo unspecified), the AC50 [15] was 2.5 µM (active).

From ChEMBL document CHEMBL1201862, “PubChem BioAssay data set” (2004)
